These results are taken from US9682991B2, “Tricyclic compounds for use as kinase inhibitors” (FUNDACIÓN CENTRO NACIONAL DE INVESTIGACIONES ONCOLOGICAS …, priority 2009, dated 2017).

Test [1] concerns DU145 cells (prostate). In words: MTT in vitro cell proliferation / combination assay, DU145. The test is classed as cell-based. The following applies: for EC50: Homo sapiens, DU-145. On the procedure: (§1) Proliferation assays (MTT) were performed as described in: • “Chemical interrogation of FOXO3a nuclear translocation identifies potent and selective inhibitors of phosphoinositide 3-kinases”, W. Link, J. Oyarzabal, B. G. Serelde, M. I. Albarran, O. Rabal, A. Cebria, P. Alfonso, J. Fominaya, O. Renner, S. Peregrina, D. Soilan, P. A. Ceballos, A. I. Hernandez, M. Lorenzo, P. Pevarello, T. G. Granda, G. Kurz, A. Carnero, J. R. Bischoff, J. Biol. Chem. 284 (2009) 28392-28400. Combination Assay
(§2) A combination index score is calculated by the Chou and Talalay method (CalcuSyn software, Biosoft). The strength of synergy is scored using the ranking system Chou and Talalay: CI less than 0.8 indicates synergy, CI between 0.8 and 1.2 indicates additivity and CI greater than 1.2 indicates antagonism.
(§3) The EC50 values of representative combinations were also calculated. The individually measured EC50 values of the chemotherapeutic agent and the example compounds are compared to the EC50 value of the combination. The cell lines are characterised by tumor type.
(§4) Combination assays were performed as described in: • “Pim 1 kinase inhibitor ETP-45299 suppresses cellular proliferation and synergizes with PI3K inhibition”. Blanco-Aparicio, Carmen; Collazo, Ana Maria Garcia; Oyarzabal, Julen; Leal, Juan F.; Albaran, Maria Isabel; Lima, Francisco Ramos; Pequeno, Belen; Ajenjo, Nuria; Becerra, Mercedes; Alfonso, Patricia; Reymundo, Maria Isabel; Palacios, Irene; Mateos, Genoveva; Quinones, Helena; Corrionero, Ana; Carnero, Amancio; Pevarello, Paolo; Lopez, Ana Rodriguez; Fominaya, Jesus; Pastor, Joaquin; Bischoff, James R. Cancer Letters (Shannon, Ireland) 2011, 300(2), 145-153.

The subject of test [2] is Mantle cell lymphoma cells. In words: MTT in vitro cell proliferation / combination assay, mantle cell lymphoma (cell line not given). The test is classed as cell-based. The following applies: Mantle cell lymphoma (cell line cell empty). As for the experimental part: as §1, §2, §3, §4
Test [3] has as its system MV4:11 cells (leukemia, AML). The experiment in a line: MTT in vitro cell proliferation / combination assay, MV4:11. The test is classed as cell-based. To be noted: for EC50: Homo sapiens, MV4:11, example compound alone. As for the experimental part:
as §2
(§5) The EC50 values of representative combinations were also calculated. The individually measured EC50 values of the chemotherapeutic agent and the example compounds are compared to the EC50 value of the combination. The cell lines are characterised by tumor type. […]

For test [4], the target named is PIM-1 (Homo sapiens (Human), UniProt P11309). The experiment in a line: PIM-1 biochemical assay (ADP Hunter). The following applies: read-out: PIM1 IC50; semi-quantitative.
Test [5] concerns HTC116 cells (colon carcinoma). In words: MTT in vitro cell proliferation / combination assay, HTC116. The test is classed as cell-based. On the procedure:
as §2, §3

Test [6] has as its system Jeko-1 cells (Mantle cell lymphoma). The experiment in a line: MTT in vitro cell proliferation / combination assay, Jeko-1. The following applies: for EC50: Homo sapiens. The test is classed as cell-based. On the procedure:
as §2, §3
(§6) Blanco-Aparicio, Carmen; Collazo, Ana Maria Garcia; Oyarzabal, Julen; Leal, Juan F.; Albaran, Maria Isabel; Lima, Francisco Ramos; Pequeno, Belen; Ajenjo, Nuria; Becerra, Mercedes; Alfonso, Patricia; Reymundo, Maria Isabel; Palacios, Irene; Mateos, Genoveva; Quinones, Helena; Corrionero, Ana; Carnero, Amancio; Pevarello, Paolo; Lopez, Ana Rodriguez; Fominaya, Jesus; Pastor, Joaquin; Bischoff, James R. Cancer Letters (Shannon, Ireland) 2011, 300(2), 145-153.

In test [7] the test system is MiaPaca-2 cells (pancreas). In words: MTT in vitro cell proliferation / combination assay, MiaPaca-2. It counts as cell-based. The following applies: for EC50: Homo sapiens, MIA PaCa-2. On the procedure:
as §1, §2, §3, §4

Test [8] relates to A549 cells (lung adenocarcinoma). The experiment in a line: MTT in vitro cell proliferation / combination assay, A549. It counts as cell-based. On the procedure:
as §2, §3, §6

In test [9] the test system is SKMel19 cells (melanoma). In words: MTT in vitro cell proliferation / combination assay, SKMel19. It counts as cell-based. On the procedure: as §2, §5
The test system of test [10] is NCI H1975 cells (non small cell lung carcinoma). In words: MTT in vitro cell proliferation / combination assay, NCI H1975. It counts as cell-based. On the procedure:
as §2, §3, §6

[11] abbreviates: MV4:11, combination with GDC-0941.
[12] abbreviates: A549, combination with GDC-0941.
The mark [13] stands for this setting: MV4:11, combination with lapatinib.
Where [14] appears, read: HTC116, combination with PD-0325901.
The mark [15] stands for this setting: HTC116, combination with lapatinib.
[16] abbreviates: DU145, combination with Taxotere.
Setting [17] is: SKMel19, combination with GDC-0879.
The mark [18] stands for this setting: SKMel19, combination with GDC-0941.
Where [19] appears, read: NCI H1975, combination with GDC-0941.
The mark [20] stands for this setting: Jeko-1, combination with GDC-0941.
The mark [21] stands for this setting: Jeko-1, combination with lapatinib.
[22] abbreviates: MiaPaca-2, combination with lapatinib.

Each structure is given as a SMILES string. Read-outs that look alike come from different tables or passages of the source. Some results are limits rather than exact numbers.

PIM-1, sequence (P11309 whole entry): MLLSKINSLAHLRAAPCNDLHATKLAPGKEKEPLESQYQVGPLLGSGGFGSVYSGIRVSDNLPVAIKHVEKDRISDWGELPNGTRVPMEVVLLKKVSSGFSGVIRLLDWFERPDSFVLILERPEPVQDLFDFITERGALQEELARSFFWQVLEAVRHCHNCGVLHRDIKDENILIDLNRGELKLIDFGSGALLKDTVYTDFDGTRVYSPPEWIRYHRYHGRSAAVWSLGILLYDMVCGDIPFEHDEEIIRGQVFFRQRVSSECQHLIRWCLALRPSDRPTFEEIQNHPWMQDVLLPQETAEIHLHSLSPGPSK

On to `CC(=O)O[C@@]12CO[C@@H]1C[C@H](O)[C@@]1(C)C(=O)[C@H](O)C3=C(C)[C@@H](OC(=O)[C@H](O)[C@@H](NC(=O)OC(C)(C)C)c4ccccc4)C[C@](O)([C@@H](OC(=O)c4ccccc4)[C@H]21)C3(C)C` [Taxotere, (2R,3S)—N-carboxy-3-phenylisoserine, N-tert-butyl ester, 13-ester with 5,20-epoxy-1,2,4,7,10,13-hexahydroxytax-11-en-9-one 4-acetate 2-benzoate, trihydrate, reference compound], for which, in [1] (DU145, chemotherapeutic alone, read-out: Chemoth EC50), the EC50 was 0.025 µM.
For `CN1CCC(CNc2nn3c(-c4cccc(OC(F)(F)F)c4)nnc3c3c2N(C)CCO3)CC1` [Example 16, (1-Methyl-piperidin-4-ylmethyl)-[6-methyl-3-(3-trifluoromethoxy-phenyl)-7,8-dihydro-6H-9-oxa-1,2,3a,4,6-pentaaza-cyclopenta[a]naphthalen-5-yl]-amine], the “Combination Index (CI)” value in test [2] (combination with lapatinib) was 0.289; in test [3] (setting [11]), 0.585. The Synergy result is “+++ (0.1<CI<0.3)” in test [2] (combination with lapatinib) and “++ (0.3<C1<0.7)” in test [3] (setting [11]). The EC50 was determined as 10 µM in [2] (example compound alone, read-out: Example EC50) and 5 µM in test [3]. Moreover, the half-inhibitory concentration (IC50) in [4] is under 0.1 µM.
On to `CS(=O)(=O)CCNCc1ccc(-c2ccc3ncnc(Nc4ccc(OCc5cccc(F)c5)c(Cl)c4)c3c2)o1` [lapatinib, N-(3-chloro-4-(3-fluorobenzyloxy)phenyl)-6-(5-((2-(methylsulfonyl)ethylamino)-methyl)furan-2-yl)quinazolin-4-amine, reference compound], for which the half-maximal effective concentration (EC50) was determined as 5 µM in [2] (chemotherapeutic alone, read-out: Chemoth EC50); 10 µM in test [5] (HTC116, chemotherapeutic alone, read-out: Chemoth EC50); 5 µM in [6] (Jeko-1, chemotherapeutic alone, read-out: Chemoth EC50); 20 µM in test [7] (MiaPaca-2, chemotherapeutic alone, read-out: Chemoth EC50).
As to `CN1CCOc2c1c(N1CCC3(CC1)CC(N)C3)nn1c(-c3cccc(OC(F)(F)F)c3)nnc21` [Example 48, 7-[6-Methyl-3-(3-trifluoromethoxy-phenyl)-7,8-dihydro-6H-9-oxa-1,2,3a,4,6-pentaaza-cyclopenta[a]naphthalen-5-yl]-7-aza-spiro[3.5]non-2-ylamine], the “Combination Index (CI)” value in test [8] (setting [12]) was found to be 0.12; in test [3] (setting [11]), 0.3; in test [3] (setting [13]) it was 0.548; in [5] (setting [14]), 0.759; in test [5] (setting [15]), 0.608; in test [1] (setting [16]), 0.704. In addition, the “Combination Index (CI)” value in test [9] (setting [17]) is reported as 0.319; in test [9] (setting [18]), 0.571; in test [10] (setting [19]), 0.038; in [6] (setting [20]) it was 0.718; in test [6] (setting [21]) it was 0.244; in test [7] (setting [22]), 0.57. The Synergy entry in test [8] (setting [12]) was “+++ (0.1<CI<0.3)”; in test [3] (setting [11]), “+++ (0.1<CI<0.3)”; in test [3] (setting [13]), “++ (0.3<C1<0.7)”; in [5] (setting [14]), “+ (0.7<C1<1.2)”; in test [5] (setting [15]) it was “++ (0.3<C1<0.7)”; in test [1] (setting [16]), “+ (0.7<C1<1.2)”. Besides, the Synergy result in [9] (setting [17]) is given as “++ (0.3<C1<0.7)”; in test [9] (setting [18]) it was “++ (0.3<C1<0.7)”; in test [10] (setting [19]) it was “++++ (CI<0.1)”; in test [6] (setting [20]) it was “+ (0.7<C1<1.2)”; in test [6] (setting [21]) it was “+++ (0.1<CI<0.3)”; in test [7] (setting [22]), “++ (0.3<C1<0.7)”. Also, the 50% effective concentration (EC50) in test [8] (Homo sapiens, A549, example compound alone) is 6 µM; in test [3], 1 µM; in test [5] (HTC116, example compound alone, read-out: Example EC50), 10 µM; in test [1] (DU145, example compound alone, read-out: Example EC50), 15 µM; in [9] (Homo sapiens, SK-MEL19, SKMel19, example compound alone) it was 3 µM; in test [9] (SKMel19, example compound alone), 4 µM. The half-maximal effective concentration (EC50) in test [10] (Homo sapiens, NCI H1975, example compound alone) came out at 5 µM; in test [6] (Jeko-1, example compound alone, read-out: Example EC50) it was 2.5 µM; in test [7] (MiaPaca-2, example compound alone, read-out: Example EC50) it was 5 µM. Further, the IC50 in test [4] was under 0.1 µM.

By EC50 is commonly meant the concentration at which the effect is half-maximal. The term IC50 denotes the concentration at which inhibition is half-maximal.
